In patent publication US10245261B2, “Substituted indol-5-ol derivatives and their therapeutic applications” (NantBioScience, Inc., priority 2013, dated 2019):

Tests used:
Experiment in all cases: KinaseProfiler kinase assay
Assay type in all cases: biochemical
[1] = biological target: ACK1(h) (Homo sapiens, UniProt Q07912)
Summary of the method: (§1)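 Steps: compound diluted from DMSO into MOPS/BSA assay buffer; MgATP mix with [γ-33P]ATP added to start; 40 min incubation at room temperature; phosphoric acid stop; filtermat spotting, washing in 50 mM phosphoric acid and methanol; scintillation counting.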

[2] = biological target: Arg(m) (Mus musculus, UniProt Q4JIM5)
Chain of Arg(m) (Q4JIM5 whole entry): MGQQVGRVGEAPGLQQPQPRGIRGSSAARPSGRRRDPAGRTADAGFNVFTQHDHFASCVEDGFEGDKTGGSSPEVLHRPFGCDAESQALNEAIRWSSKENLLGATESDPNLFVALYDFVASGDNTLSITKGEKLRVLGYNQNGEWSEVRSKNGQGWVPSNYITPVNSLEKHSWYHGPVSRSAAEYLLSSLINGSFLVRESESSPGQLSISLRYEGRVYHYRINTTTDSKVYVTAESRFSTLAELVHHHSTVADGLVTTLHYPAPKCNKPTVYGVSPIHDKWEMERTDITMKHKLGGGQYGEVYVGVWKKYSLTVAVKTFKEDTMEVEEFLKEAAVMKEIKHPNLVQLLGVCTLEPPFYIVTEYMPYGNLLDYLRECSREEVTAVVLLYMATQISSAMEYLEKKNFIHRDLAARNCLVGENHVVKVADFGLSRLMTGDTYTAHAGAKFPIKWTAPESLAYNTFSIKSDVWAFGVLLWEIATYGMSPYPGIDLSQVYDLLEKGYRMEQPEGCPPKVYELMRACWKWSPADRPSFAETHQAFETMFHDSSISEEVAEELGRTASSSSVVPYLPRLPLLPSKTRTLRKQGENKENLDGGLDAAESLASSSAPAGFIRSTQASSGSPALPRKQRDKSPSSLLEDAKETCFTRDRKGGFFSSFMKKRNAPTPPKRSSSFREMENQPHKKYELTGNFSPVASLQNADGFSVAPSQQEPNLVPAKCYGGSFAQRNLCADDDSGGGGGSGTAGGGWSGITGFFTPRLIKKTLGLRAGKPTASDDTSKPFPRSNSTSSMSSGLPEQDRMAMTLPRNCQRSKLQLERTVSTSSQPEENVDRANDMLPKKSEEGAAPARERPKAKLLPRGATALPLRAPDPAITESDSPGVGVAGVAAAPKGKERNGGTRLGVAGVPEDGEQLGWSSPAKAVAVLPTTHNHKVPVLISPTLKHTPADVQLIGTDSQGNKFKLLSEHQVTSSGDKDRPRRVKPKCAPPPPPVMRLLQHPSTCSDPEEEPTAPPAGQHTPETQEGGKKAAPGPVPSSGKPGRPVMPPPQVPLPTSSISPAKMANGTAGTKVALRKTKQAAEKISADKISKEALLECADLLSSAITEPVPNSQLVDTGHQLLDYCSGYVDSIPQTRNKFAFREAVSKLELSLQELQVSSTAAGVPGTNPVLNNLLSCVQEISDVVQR
Summary of the method: as §1

[3] = biological target: CDK2/cyclinA(h) (Homo sapiens, UniProt P24941)
Summary of the method: as §1

[4] = biological target: CDK5/p35(h) (Homo sapiens, UniProt Q00535)
Summary of the method: as §1

[5] = biological target: CDK6/cyclinD3(h) (Homo sapiens, UniProt Q00534)
Chain of CDK6/cyclinD3(h) (Q00534 whole entry): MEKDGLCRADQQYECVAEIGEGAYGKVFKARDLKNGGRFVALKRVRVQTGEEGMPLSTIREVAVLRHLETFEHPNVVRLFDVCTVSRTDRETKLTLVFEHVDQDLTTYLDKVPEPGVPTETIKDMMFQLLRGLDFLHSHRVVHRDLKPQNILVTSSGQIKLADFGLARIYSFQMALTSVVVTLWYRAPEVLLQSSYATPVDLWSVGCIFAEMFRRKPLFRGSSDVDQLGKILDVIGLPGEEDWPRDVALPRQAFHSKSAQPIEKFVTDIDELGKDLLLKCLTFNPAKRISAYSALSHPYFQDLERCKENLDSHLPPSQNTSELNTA
Chain of CDK6/cyclinD3(h) (P30281 whole entry partner): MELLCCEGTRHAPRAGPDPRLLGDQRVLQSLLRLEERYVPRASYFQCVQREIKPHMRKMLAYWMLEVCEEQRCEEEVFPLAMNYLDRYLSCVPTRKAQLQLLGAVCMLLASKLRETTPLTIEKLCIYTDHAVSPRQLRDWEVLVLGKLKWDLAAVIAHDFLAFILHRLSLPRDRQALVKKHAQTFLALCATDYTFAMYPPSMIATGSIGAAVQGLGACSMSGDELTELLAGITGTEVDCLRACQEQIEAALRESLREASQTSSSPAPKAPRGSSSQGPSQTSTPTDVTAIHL
Summary of the method: as §1

[6] = biological target: CK1γ3(h) (Homo sapiens, UniProt Q9Y6M4)
Chain of CK1γ3(h) (Q9Y6M4 whole entry): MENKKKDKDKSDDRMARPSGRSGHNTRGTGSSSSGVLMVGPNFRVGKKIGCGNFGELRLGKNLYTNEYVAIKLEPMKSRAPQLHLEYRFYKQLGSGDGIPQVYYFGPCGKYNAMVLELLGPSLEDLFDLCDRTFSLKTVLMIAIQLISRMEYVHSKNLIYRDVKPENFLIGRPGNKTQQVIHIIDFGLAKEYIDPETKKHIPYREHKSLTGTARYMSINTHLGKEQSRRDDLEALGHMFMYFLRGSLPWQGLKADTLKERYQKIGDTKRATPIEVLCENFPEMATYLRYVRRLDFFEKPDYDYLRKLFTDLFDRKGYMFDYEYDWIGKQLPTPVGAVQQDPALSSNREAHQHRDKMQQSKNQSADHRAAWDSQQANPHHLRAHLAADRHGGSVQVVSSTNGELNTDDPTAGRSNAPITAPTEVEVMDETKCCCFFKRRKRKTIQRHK
Summary of the method: as §1

[7] = biological target: DAPK2(h) (Homo sapiens, UniProt Q9UIK4)
Summary of the method: as §1

[8] = biological target: EphA1(h) (Homo sapiens, UniProt P21709)
Chain of EphA1(h) (P21709 26-976): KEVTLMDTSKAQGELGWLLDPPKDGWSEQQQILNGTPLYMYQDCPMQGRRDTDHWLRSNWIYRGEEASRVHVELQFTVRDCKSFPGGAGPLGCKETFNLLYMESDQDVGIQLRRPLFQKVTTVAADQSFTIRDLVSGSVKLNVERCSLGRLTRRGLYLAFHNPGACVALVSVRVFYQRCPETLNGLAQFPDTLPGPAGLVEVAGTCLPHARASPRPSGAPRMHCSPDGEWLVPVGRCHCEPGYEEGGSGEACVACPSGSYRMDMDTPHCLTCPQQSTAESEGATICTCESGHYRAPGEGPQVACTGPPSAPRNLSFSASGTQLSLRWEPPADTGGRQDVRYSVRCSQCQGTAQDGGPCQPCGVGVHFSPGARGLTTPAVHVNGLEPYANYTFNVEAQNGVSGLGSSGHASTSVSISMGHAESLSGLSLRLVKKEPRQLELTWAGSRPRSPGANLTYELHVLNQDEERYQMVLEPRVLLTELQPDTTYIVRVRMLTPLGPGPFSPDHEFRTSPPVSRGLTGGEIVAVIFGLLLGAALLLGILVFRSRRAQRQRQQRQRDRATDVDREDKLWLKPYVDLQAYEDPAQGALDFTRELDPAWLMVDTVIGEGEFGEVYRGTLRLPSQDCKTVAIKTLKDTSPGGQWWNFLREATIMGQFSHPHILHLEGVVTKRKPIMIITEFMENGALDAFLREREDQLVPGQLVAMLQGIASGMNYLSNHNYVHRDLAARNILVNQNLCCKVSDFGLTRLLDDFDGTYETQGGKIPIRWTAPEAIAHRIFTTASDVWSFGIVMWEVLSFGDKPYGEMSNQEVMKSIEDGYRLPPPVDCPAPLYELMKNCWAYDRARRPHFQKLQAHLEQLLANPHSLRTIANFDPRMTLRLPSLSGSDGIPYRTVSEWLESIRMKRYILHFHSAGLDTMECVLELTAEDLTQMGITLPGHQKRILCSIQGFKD
Summary of the method: as §1

[9] = biological target: EphB3(h) (Homo sapiens, UniProt P54753)
Summary of the method: as §1

[10] = biological target: GSK3β(h) (Homo sapiens, UniProt P49841)
Summary of the method: as §1

[11] = biological target: IGF-1R(h) (Homo sapiens, UniProt P08069)
Summary of the method: as §1

[12] = biological target: IGF-1R(h), activated (Homo sapiens, UniProt P08069)
Summary of the method: as §1

[13] = biological target: JAK2(h) (Homo sapiens, UniProt O60674)
Summary of the method: as §1

[14] = biological target: Lyn(m) (Mus musculus, UniProt P25911)
Summary of the method: as §1

[15] = biological target: MINK(h) (Homo sapiens, UniProt Q8N4C8)
Summary of the method: as §1

[16] = biological target: MKK6(h) (Homo sapiens, UniProt P52564)
Summary of the method: as §1

[17] = biological target: MSSK1(h) (Homo sapiens, UniProt Q9UPE1)
Summary of the method: as §1

[18] = biological target: MST2(h) (Homo sapiens, UniProt Q13188)
Summary of the method: as §1

[19] = biological target: MST3(h) (Homo sapiens, UniProt Q9Y6E0)
Summary of the method: as §1

[20] = biological target: NEK2(h) (Homo sapiens, UniProt P51955)
Chain of NEK2(h) (P51955 whole entry): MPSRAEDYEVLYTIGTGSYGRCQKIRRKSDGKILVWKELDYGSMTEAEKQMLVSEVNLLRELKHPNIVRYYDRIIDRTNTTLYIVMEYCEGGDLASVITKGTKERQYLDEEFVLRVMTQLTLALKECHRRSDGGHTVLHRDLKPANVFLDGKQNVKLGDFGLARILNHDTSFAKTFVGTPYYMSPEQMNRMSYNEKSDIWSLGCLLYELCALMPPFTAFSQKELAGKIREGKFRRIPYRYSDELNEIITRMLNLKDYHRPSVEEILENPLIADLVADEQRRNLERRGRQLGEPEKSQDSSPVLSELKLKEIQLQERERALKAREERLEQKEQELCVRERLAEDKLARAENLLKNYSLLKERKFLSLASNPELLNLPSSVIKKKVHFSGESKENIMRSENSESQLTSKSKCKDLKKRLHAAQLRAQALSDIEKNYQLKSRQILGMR
Summary of the method: as §1

[21] = biological target: PASK(h) (Homo sapiens, UniProt Q96RG2)
Summary of the method: as §1

[22] = biological target: PDGFRβ(h) (Homo sapiens, UniProt P09619)
Summary of the method: as §1

[23] = biological target: PI3 Kinase (p110α/p65α)(h) (Homo sapiens, UniProt P42336)
Summary of the method: as §1

[24] = biological target: PI3 Kinase (p110α/p85α)(m) (Mus musculus, UniProt P42337)
Summary of the method: as §1

[25] = biological target: PI3 Kinase (p110δ/p85α)(h) (Homo sapiens, UniProt O00329)
Summary of the method: as §1

[26] = biological target: PKG1β(h) (Homo sapiens, UniProt Q13976)
Summary of the method: as §1

[27] = biological target: PhKγ2(h) (Homo sapiens, UniProt P15735)
Summary of the method: as §1

[28] = biological target: Pyk2(h) (Homo sapiens, UniProt Q14289)
Summary of the method: as §1

[29] = biological target: SIK(h) (Homo sapiens, UniProt P57059)
Summary of the method: as §1

[30] = biological target: eEF-2K(h) (Homo sapiens, UniProt O00418)
Summary of the method: as §1

[31] = biological target: mTOR/FKBP12(h) (Homo sapiens, UniProt P42345)
Chain of mTOR/FKBP12(h) (P42345 1362-2549): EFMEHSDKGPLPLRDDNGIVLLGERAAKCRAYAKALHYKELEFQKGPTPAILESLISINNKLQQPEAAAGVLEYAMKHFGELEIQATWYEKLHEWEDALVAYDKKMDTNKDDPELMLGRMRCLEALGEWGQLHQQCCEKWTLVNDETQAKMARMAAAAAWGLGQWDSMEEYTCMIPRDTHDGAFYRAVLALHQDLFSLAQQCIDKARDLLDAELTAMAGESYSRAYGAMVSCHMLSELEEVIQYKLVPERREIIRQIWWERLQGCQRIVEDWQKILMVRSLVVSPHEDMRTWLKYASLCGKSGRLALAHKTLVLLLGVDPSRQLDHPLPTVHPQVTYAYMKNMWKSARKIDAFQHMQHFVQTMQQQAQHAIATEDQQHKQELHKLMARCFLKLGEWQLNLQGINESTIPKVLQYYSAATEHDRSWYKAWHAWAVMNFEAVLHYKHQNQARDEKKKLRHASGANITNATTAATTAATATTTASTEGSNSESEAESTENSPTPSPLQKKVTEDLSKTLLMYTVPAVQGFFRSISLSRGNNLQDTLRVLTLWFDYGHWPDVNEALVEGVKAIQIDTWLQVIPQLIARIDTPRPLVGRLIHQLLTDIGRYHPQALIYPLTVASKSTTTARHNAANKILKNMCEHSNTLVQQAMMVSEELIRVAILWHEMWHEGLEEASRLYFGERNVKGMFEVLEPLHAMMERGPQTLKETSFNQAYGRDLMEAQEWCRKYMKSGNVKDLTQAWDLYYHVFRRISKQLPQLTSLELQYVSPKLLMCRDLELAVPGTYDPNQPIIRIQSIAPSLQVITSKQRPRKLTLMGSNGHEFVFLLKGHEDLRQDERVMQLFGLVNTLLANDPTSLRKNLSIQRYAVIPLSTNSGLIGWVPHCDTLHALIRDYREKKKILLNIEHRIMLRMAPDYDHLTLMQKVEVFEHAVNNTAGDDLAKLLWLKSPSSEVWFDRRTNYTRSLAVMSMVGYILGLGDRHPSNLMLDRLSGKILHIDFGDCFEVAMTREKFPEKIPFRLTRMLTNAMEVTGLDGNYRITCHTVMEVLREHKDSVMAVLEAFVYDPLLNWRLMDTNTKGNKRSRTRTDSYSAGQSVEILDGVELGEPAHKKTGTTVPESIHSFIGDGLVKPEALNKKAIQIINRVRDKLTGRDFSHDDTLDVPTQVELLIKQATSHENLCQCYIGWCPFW
Summary of the method: as §1

[32] = biological target: p70S6K(h) (Homo sapiens, UniProt P23443)
Summary of the method: as §1

Row | SMILES | inhibition at 0.1 µM [1] | inhibition at 0.1 µM [2] | inhibition at 0.1 µM [3] | inhibition at 0.1 µM [4] | inhibition at 0.1 µM [5] | inhibition at 0.1 µM [6] | inhibition at 0.1 µM [7] | inhibition at 0.1 µM [8] | inhibition at 0.1 µM [9] | inhibition at 0.1 µM [10] | inhibition at 0.1 µM [11] | inhibition at 0.1 µM [12] | inhibition at 0.1 µM [13] | inhibition at 0.1 µM [14] | inhibition at 0.1 µM [15] | inhibition at 0.1 µM [16] | inhibition at 0.1 µM [17] | inhibition at 0.1 µM [18] | inhibition at 0.1 µM [19] | inhibition at 0.1 µM [20] | other results
1 | Cc1cc2c(F)c(Oc3nc(Nc4cc(C5CC5)[nH]n4)cc(N4CCN(C)CC4)n3)ccc2[nH]1 [Compound 10] | 99% | 99% | 5% | 20% | -5% | -12% | -16% | 78% | -8% | -15% | 78% | 59% | 92% | 98% | 7% | -5% | 22% | 24% | 85% | 6% | inhibition at 0.1 µM [21]: 22%; inhibition at 0.1 µM [22]: 28%; inhibition at 0.1 µM [23]: -6%; inhibition at 0.1 µM [24]: 1%; inhibition at 0.1 µM [25]: 2%; inhibition at 0.1 µM [26]: -11%; inhibition at 0.1 µM [27]: 2%; inhibition at 0.1 µM [28]: 64%; inhibition at 0.1 µM [29]: 50%; inhibition at 0.1 µM [30]: -15%; inhibition at 0.1 µM [31]: -14%; inhibition at 0.1 µM [32]: -10%
2 | Cc1cc2c(F)c(Oc3nc(Nc4cc(C5CC5)[nH]n4)cc(N4CCNCC4)n3)ccc2[nH]1 [Compound 11, N-(5-cyclopropyl-1H-pyrazol-3-yl)-2-((4-fluoro-2-methyl-1H-indol-5-yl)oxy)-6-(piperazin-1-yl)pyrimidin-4-amine] | 95% | 102% | 3% | 78% | 11% | -9% | -6% | 92% | -18% | 19% | 62% | 65% | 99% | 101% | 31% | -13% | 0% | 22% | 80% | -7% | inhibition at 0.1 µM [21]: -17%; inhibition at 0.1 µM [22]: 24%; inhibition at 0.1 µM [23]: -1%; inhibition at 0.1 µM [24]: -1%; inhibition at 0.1 µM [25]: -1%; inhibition at 0.1 µM [26]: -2%; inhibition at 0.1 µM [27]: 13%; inhibition at 0.1 µM [28]: 63%; inhibition at 0.1 µM [29]: 56%; inhibition at 0.1 µM [30]: 10%; inhibition at 0.1 µM [31]: -9%; inhibition at 0.1 µM [32]: 2%
